Data taken from patent US20250084074A1, “SUBSTITUTED HETEROCYCLES AS HSET INHIBITORS” (MERCK PATENT GMBH, priority 2022, published 2025).

biological target: HSET full length protein (Homo sapiens (Human), UniProt Q9BW19); assay: HSET ADP-Glo Assay S - 3 μM ATP; format: biochemical; settings: 5 nM HSET, 70 μg/mL microtubule, 80 min at rt, read-out: COMBINED HSET ADP GLO IC50
Protocol: Example 281: Testing compounds of the present invention for inhibitory activities against HSET—HSET ADP-Glo Assay S—3 μM ATP
Reagents: (+4° C. Storage) • Paclitaxel Prod.No.TXD.01 2 mM in DMSO (from Universal Biologicals Cambridge). • Tubulin Protein (Pre-formed Microtubules): Bovine Brain Prod.No.MT001-XL Lot.025 10 mg/mL (from Universal Biologicals Cambridge).
Reagents: (−80° C. Storage) • MT001-XL—Tubulin Protein (Pre-formed Microtubules): Bovine Brain—reconstituted in buffer—15 mM PIPES pH7, 1 mM MgCl2, 20 μM paclitaxel (aliquots at 10 mg/mL) from Universal Biologicals Cambridge. • HSET full length protein—Current batch is FL HSET Prep1 (SEQ-000096_002-01_01) • Buffer is 20 mM Hepes pH 7.5, 200 mM NaCl, 2 mM TCEP, 5% glycerol (5 μL aliquots at 10.2 μM)
Reagents: (−20° C. Storage) • ADP-Glo Kinase Assay kit (Promega Prod.No.V9102) 10,000 assay points • ADP-Glo reagent (50 mL), Kinase Detection Reagent (100 mL), and Ultrapure ATP (10 mM) aliquoted
Buffer Stocks (filtered and stored at rt for up to 1 month) • HEPES acid, 4-(2-Hydroxyethyl)piperazine-1-ethanesulfonic acid MW:238, 238.3 mg/mL=1 M • 7149 mg/30 mL=1M (pH to 6.8 with 5 M NaOH) • PIPES, 1,4-Piperazinediethanesulfonic acid MW: 302.4, 30.24 mg/mL=100 mM; 907.2 mg/30 mL=100 mM (pH to 7 with 5 M NaOH, white cloudy suspension until the pH changes) • EGTA, Ethylene glycol-bis(2-aminoethylether)-N,N,N′,N′-tetraacetic acid MW: 380.35, 38.035 mg/mL=100 mM • 1901.75 mg/50 mL=100 mM (pH to ˜7 with 5 M NaOH)—takes a long time to get into solution and for pH to stabilize • Triton-X-100, MW: 625, 62.5 mg/mL=100 mM (6.25% w/v) (viscous, pipette Triton X-100 with a Gilson using a trimmed pipette tip)
ECHO Protocol • Create an ECHO intermediate plate by adding 24.5 μL DMSO to columns 1 & 2, and 40 μL DMSO to columns 23 & 24 of an ECHO 384PP plate • Add 100 nL of compound/DMSO per well in 384-well Proxi-Plate Plus (white) —Perkin Elmer Cat #6008289 using ECHO dose response protocol 100 nL normal to proxi_8pt_200 uM.
Assay buffer (Keep on ice): HEPES pH 6.8, MgCl2, EGTA, Triton X-100, DTT, HPLC H2O Microtubule Working Solution (3.2): • 1 ml PM buffer: PIPES pH 7.0, MgCl2, HPLC H2O, Paclitaxel, mix well, store at rt • Then add 26.4 μL of 10 mg/ml microtubules to 724 μL of the above PM buffer to make 750 μL of microtubule working solution @350 μg/mL microtubules (store at rt)
Stock HSET enzyme solution (3.1)—keep on ice • Add 1.33 μL 10.2 μM HSET Prepi (SEQ-000096_002-01_01) to 1358 μL assay buffer to make a 10 nM stock for a 5 nM final assay concentration (1/1020 dilution).
HSET/Microtubule working solution (3.3) • Mix solutions 3.1 and 3.2 in the ratio of 2.5:1 (1214.3 μL 3.1+485.7 μL 3.2) keep at rt for 15 min • 3.2 is diluted 3.5-fold, 3.1 is diluted 1.4-fold BLANK solution is 357 μL 2XAB+143 μL microtubule working solution 3.2. (Same proportions as HSET/Microtubule working solution (3.3))
ATP Working solution is 1 μL 10 mM UltraPure ATP (Promega kit)+999 μL ddH20 gives 10 μM ATP for a 3 μM final assay concentration, stored on ice.
Assay procedure in PROXIPLATE 384 PLUS WHITE (Perkin Elmer) plates (Remove 2.4 mL ADP Glo and 4.5 mL Kinase detection reagent from freezer to warm up to rt) • Add 3.5 μL BLANK solution to assay plate (column 12) • Add 3.5 μL HSET/Microtubule solution (3.3) (columns 1-11 & 13-24) • Centrifuge at 1000 rpm for 1 min • (pre-incubate enzyme and compound for 10 min)
Add 1.5 μL of 10 μM ATP to start reaction gives a final [HSET] of 5 nM, [ATP] of 3 μM and [microtubule] of 70 μg/mL, centrifuge at 1000 rpm for 1 min and incubated at rt for 80 min.
After the 80-minute incubation, stop reaction by adding 5 μL ADP-Glo reagent to all wells. Centrifuge for 1 min at 1000 rpm, leave for 40 min at rt.
In the dark/away from direct light, add 10 μL Kinase Detection Reagent (KDR) to all wells, Seal plate with a Topseal (Perkin Elmer Cat #6050185) and centrifuge as above, leave for 40 min at rt covered in foil. […]

Chain of HSET full length protein (Q9BW19 whole entry): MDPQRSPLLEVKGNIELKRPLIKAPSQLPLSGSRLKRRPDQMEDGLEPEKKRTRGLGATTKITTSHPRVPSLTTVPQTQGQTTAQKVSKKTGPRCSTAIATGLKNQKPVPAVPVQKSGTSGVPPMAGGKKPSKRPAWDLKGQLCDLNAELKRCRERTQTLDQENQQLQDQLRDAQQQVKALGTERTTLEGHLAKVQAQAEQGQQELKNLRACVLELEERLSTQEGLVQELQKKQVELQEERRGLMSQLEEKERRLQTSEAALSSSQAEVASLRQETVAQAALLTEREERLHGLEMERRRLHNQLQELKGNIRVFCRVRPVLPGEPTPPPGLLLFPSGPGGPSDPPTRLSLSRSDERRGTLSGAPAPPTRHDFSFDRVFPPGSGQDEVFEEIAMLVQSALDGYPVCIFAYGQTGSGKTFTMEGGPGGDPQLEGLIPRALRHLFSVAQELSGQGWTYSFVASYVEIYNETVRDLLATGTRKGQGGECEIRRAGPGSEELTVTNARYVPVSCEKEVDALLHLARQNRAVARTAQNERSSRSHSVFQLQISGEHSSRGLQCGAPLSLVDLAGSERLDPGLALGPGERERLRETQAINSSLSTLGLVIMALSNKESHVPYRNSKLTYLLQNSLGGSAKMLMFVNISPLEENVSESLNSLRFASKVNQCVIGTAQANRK

Going from `Cc1nc(-c2ccc3ccnc(N[C@H]4C[C@@H](C(=O)Nc5nc(C)c(C(=O)O[C@H](C)C(F)(F)F)s5)C4)c3c2)no1` (stereo in doubt) [Example 114, [(1 R)-2,2,2-trifluoro-1-methyl-ethyl]4-methyl-2-[[3-[[7-(5-methyl-1,2,4-oxadiazol-3-yl)-1-isoquinolyl]amino]cyclobutanecarbonyl]amino]thiazole-5-carboxylate] to `Cc1nc(-c2ccc3ccnc(N[C@H]4C[C@@H](C(=O)Nc5nc(C)c(C(=O)O[C@@H](C)C(F)(F)F)s5)C4)c3c2)no1` (stereo in doubt) [Example 115, [(1 S)-2,2,2-trifluoro-1-methyl-ethyl]4-methyl-2-[[3-[[7-(5-methyl-1,2,4-oxadiazol-3-yl)-1-isoquinolyl]amino]cyclobutanecarbonyl]amino]thiazole-5-carboxylate], the IC50 falls from 17 nM to 5 nM (3.4-fold).

Compared with `CCOC(=O)c1sc(NC(=O)CCNC(=O)c2cccc(C)c2)nc1C` [Example 1, Ethyl 4-methyl-2-(3-(3-methylbenzamido)propanamido)thiazole-5-carboxylate], `CCOC(=O)c1sc(NC(=O)[C@@H](O)CNC(=O)c2cccc(C)c2)nc1C` [Example 8, Ethyl (S)-2-(2-hydroxy-3-(3-methylbenzamido)propanamido)-4-methylthiazole-5-carboxylate] is 2.3-fold lower in IC50: 2730 nM for the first, 1210 nM for the second.

Going from `CCOC(=O)c1sc(NC(=O)CCNC(=O)c2cccc(N3CCCC3)c2)nc1C` [Example 2, Ethyl 4-methyl-2-(3-(3-(pyrrolidin-1-yl)benzamido)propanamido)thiazole-5-carboxylate] to `CCOC(=O)c1sc(NC(=O)CCNC(=O)c2cccc(N3CCOCC3)c2)nc1C` [Example 7, Ethyl 4-methyl-2-(3-(3-morpholinobenzamido)propanamido)thiazole-5-carboxylate], the IC50 rises from 3970 nM to 15600 nM (3.9-fold).

Compared with `CCOC(=O)c1sc(NC(=O)CCNC(=O)c2cccc(-n3cccn3)c2)nc1C` [Example 3, Ethyl 2-(3-(3-(1 H-pyrazol-1-yl)benzamido)propanamido)-4-methylthiazole-5-carboxylate], `CCOC(=O)c1sc(NC(=O)CCNC(=O)c2cccc(-c3cnco3)c2)nc1C` [Example 6, Ethyl 4-methyl-2-(3-(3-(oxazol-5-yl)benzamido)propanamido)thiazole-5-carboxylate] is 7.4-fold lower in IC50: 4570 nM for the first, 614 nM for the second.

Going from `CCOC(=O)c1sc(NC(=O)CCNC(=O)c2cccc(-c3noc(C)n3)c2)nc1C` [Example 4, Ethyl 4-methyl-2-(3-(3-(5-methyl-1,2,4-oxadiazol-3-yl)benzamido)propanamido)thiazole-5-carboxylate] to `CCOC(=O)c1sc(NCCCNC(=O)c2cccc(-c3noc(C)n3)c2)nc1C` [Example 21, Ethyl 4-methyl-2-[3-[[3-(5-methyl-1,2,4-oxadiazol-3-yl)benzoyl]amino]-propylamino]thiazole-5-carboxylate], the IC50 rises from 63 nM to 17100 nM (270-fold). The first is the more potent here.

First: CCOC(=O)c1sc(NC(=O)CCNC(=O)c2ccc3c(c2)CCCC3)nc1C [Example 5, Ethyl 4-methyl-2-(3-(5,6,7,8-tetrahydronaphthalene-2-carboxamido)propanamido)thiazole-5-carboxylate]
Second: CCOC(=O)c1sc(NC(=O)CCNC(=O)c2ccc(C)c(C(=O)OC)c2)nc1C [Example 14, Ethyl 2-[3-[(3-methoxycarbonyl-4-methyl-benzoyl)amino]propanoylamino]-4-methyl-thiazole-5-carboxylate]
The IC50 of the first is 5.1-fold higher: 1660 nM for the first, 325 nM for the second. The second is the more potent here.

Compared with `CCOC(=O)c1sc(NC(=O)CCNC(=O)c2cc(F)cc(C(=O)OC)c2)nc1C` [Example 10, Ethyl 2-[3-[(3-fluoro-5-methoxycarbonyl-benzoyl)amino]propanoylamino]-4-methyl-thiazole-5-carboxylate], `CCOC(=O)c1sc(NC(=O)CCNC(=O)c2cc(Cl)cc(C(=O)OC)c2)nc1C` [Example 13, Ethyl 2-[3-[(3-chloro-5-methoxycarbonyl-benzoyl)amino]propanoylamino]-4-methyl-thiazole-5-carboxylate] is 4-fold lower in IC50: 36 nM for the first, 9 nM for the second.

Going from `CCOC(=O)c1sc(NC(=O)CCNC(=O)c2cccc(C(=O)OC)c2F)nc1C` [Example 11, Ethyl 2-[3-[(2-fluoro-3-methoxycarbonyl-benzoyl)amino]propanoylamino]-4-methyl-thiazole-5-carboxylate] to `CCOC(=O)c1sc(NC(=O)CCNC(=O)c2cc(C(=O)OC)ccc2Cl)nc1C` [Example 12, Ethyl 2-[3-[(2-chloro-5-methoxycarbonyl-benzoyl)amino]propanoylamino]-4-methyl-thiazole-5-carboxylate], the IC50 falls from 1830 nM to 1100 nM (1.7-fold).

Compared with `CCOC(=O)c1sc(NC(=O)CCNC(=O)c2cc(C)cc(C(=O)OC)c2)nc1C` [Example 15, Ethyl 2-[3-[(3-methoxycarbonyl-5-methyl-benzoyl)amino]propanoylamino]-4-methyl-thiazole-5-carboxylate], `CCOC(=O)c1sc(NC(=O)CCNC(=O)c2cc(Br)cc(C(=O)OC)c2)nc1C` [Example 18, Ethyl 2-[3-[(3-bromo-5-methoxycarbonyl-benzoyl)amino]propanoylamino]-4-methyl-thiazole-5-carboxylate] is 1.6-fold higher in IC50: 9 nM for the first, 14 nM for the second.

First: CCOC(=O)c1sc(NC(=O)CCNC(=O)c2cc(OC)cc(C(=O)OC)c2)nc1C [Example 16, Ethyl 2-[3-[(3-methoxy-5-methoxycarbonyl-benzoyl)amino]propanoylamino]-4-methyl-thiazole-5-carboxylate]
Second: CCOC(=O)c1sc(NC(=O)CCNC(=O)c2cc(O)cc(C(=O)OC)c2)nc1C [Example 20, Ethyl 2-[3-[(3-hydroxy-5-methoxycarbonyl-benzoyl)amino]-propanoylamino]-4-methyl-thiazole-5-carboxylate]
The IC50 of the first is 2.4-fold lower: 301 nM for the first, 737 nM for the second. The first is the more potent here.

First: CCOC(=O)c1sc(NC(=O)CCNC(=O)c2cc(C#N)cc(C(=O)OC)c2)nc1C [Example 17, Ethyl 2-[3-[(3-cyano-5-methoxycarbonyl-benzoyl)amino]propanoylamino]-4-methyl-thiazole-5-carboxylate]
Second: CCOC(=O)c1sc(NC(=O)CCNC(=O)c2cc(CC)cc(C(=O)OC)c2)nc1C [Example 19, Ethyl 2-[3-[(3-ethyl-5-methoxycarbonyl-benzoyl)amino]-propanoylamino]-4-methyl-thiazole-5-carboxylate]
The IC50 of the first is 51-fold higher: 869 nM for the first, 17 nM for the second.

Work on `CCOC(=O)c1sc(NC(=O)CCNC(=O)c2cc(/C=C/c3ccccc3)cc(C(=O)OC)c2)nc1C` [Example 22, Ethyl 2-[3-[[3-methoxycarbonyl-5-[(E)-styryl]benzoyl]amino]-propanoylamino]-4-methyl-thiazole-5-carboxylate] yielded an IC50 of 6350 nM.
